In patent US20250041284A1, “TREATMENT OF NEUROLOGICAL DISORDERS” (Praxis Precision Medicines, Inc., priority 2022, published 2025):
Several values for one entry are separate records, joined by “and”; a condition that tells them apart may be missing. Identical values can stand only once. Entries after “also recorded” stand apart in the source; their conditions may differ.

How the values were obtained:
[1] = biological target: T1, human NaV1.6 (Homo sapiens, UniProt Q9UQD0); experiment: Peak INa use-dependent block (UDB-10 Hz), automated patch clamp in HEK cells; type: cell-based
T1 construct: HEK-293 cell lines stably expressing human NaV1.6 (NP_055006) were used; expressed in transfected cells

[2] = biological target: T1, human NaV1.6; experiment: Persistent (late) INa inhibition, ATX-II activated, automated patch clamp in HEK cells; type: cell-based
[3] = tested on: MES-induced tonic hindlimb extension in male CD-1 mice; experiment: MES acute seizure model, protection from tonic hindlimb extension (Example 9); type: in vivo, mouse
Description: Male CD-1 mice (Vital River, Beijing, China) approximately 6 weeks old were obtained for the study. Body weights were between 20.5 grams and 38.5 grams at the time the experiments were carried out. […] Food and water were available ad libitum.
(§1) Treatment was conducted using Compound 1 and 35% 2-hydroxypropyl-β-cyclodextrin (35% HPBCD, used as a negative control). Compound 1 stock solution was prepared fresh each experiment day in 35% HPBCD and protected from light. The stock solution was diluted with vehicle for lower doses.
Mice were brought to the test room at least one hour before the start of the experiment. Mice were administered valproate (VPA; 400 mg/kg, intraperitoneally); or vehicle (35% HPBCD, 10 mL/kg, intraperitoneally); or Compound 1 (0.3 mg/kg, 1 mg/kg, 3 mg/kg or 10 mg/kg, orally) 30 minutes prior to the MES test.
The electroshock apparatus was set to deliver a 50 mA square-wave stimulus, with a 0.8 second duration, a pulse width of 10 milliseconds, and a frequency of 50 Hz. A pair of custom stainless-steel electrodes were soaked in 0.2% agar, and then the subject received bilateral transauricular stimulation through ear-clip electrodes. During the stimulation, mice were manually restrained then released immediately into an observation cage where they were monitored continuously for 60 seconds by an observer blinded to treatment group.
Mice were anesthetized with CO2 and terminal plasma and brain tissue samples were collected. […] The supernatant plasma was pipetted into Eppendorf tubes.
All statistical analyses were conducted using GraphPad Prism 9.3. Means were combined and standard error was calculated using the Satterthwaite Approximation to combine standard deviations. […] ED50 and EC50 values were calculated from these fit curves.

[4] = biological target: T2, hNaV1.6 (Homo sapiens, UniProt Q9UQD0); experiment: Apparent binding (KON) and unbinding (KOFF) rates inferred from INa inhibition kinetics; type: cell-based
T2 construct: expressed in transfected cells; host or cells: HEK cells

[5] = Spontaneous locomotor activity (sLMA) (Example 8); type: in vivo, mouse; settings: male, CD-1, mouse, in vivo, po, 30 min before test, distance travelled
Description: (§2) Male CD-1 mice (Vital River, Beijing, China) approximately 6 weeks old were used for the study. Body weights were between 25 g and 35 g at the time of experiment.
as §1
(§3) The spontaneous locomotor activity (sLMA) test for each study was carried out over three days, with mice from each treatment group tested each day. The treatment groups included mice dosed with vehicle (35% HPBCD) and with Compound 1 at the dose of 3 mg/kg, 5.6 mg/kg, 10 mg/kg and 20 mg/kg. Mice were randomly assigned into one of the treatment groups.
(§4) A single dose of Compound 1 (3 mg/kg, 5.6 mg/kg, 10 mg/kg and 20 mg/kg) or vehicle (35% HPBCD) was administered to mice via oral gavage 30 minutes prior to testing. Immediately prior to conducting the sLMA test, a brief neurological assessment was performed. Each animal was visually assessed for sedation and ataxia.
(§5) Activity was recorded by overhead cameras and was analyzed offline. Video tracking analysis software was used to determine total distance travelled in millimeters. Distance travelled was also calculated in 5-minute bins.
(§6) All statistical analyses were conducted using GraphPad Prism 9.3. Means were combined and standard error was calculated using the Satterthwaite Approximation to combined standard deviations. […] TD50 and TC50 values were calculated from these fit curves.

[6] = tested on: locomotor activity of male CD-1 mice; experiment: Spontaneous locomotor activity (sLMA) (Example 8); type: in vivo, mouse
Description: as §2, §1, §3, §4, §5, §6

[7] = recovery from inhibition of hNaV1.6 INa

T2 sequence (Q9UQD0 whole entry): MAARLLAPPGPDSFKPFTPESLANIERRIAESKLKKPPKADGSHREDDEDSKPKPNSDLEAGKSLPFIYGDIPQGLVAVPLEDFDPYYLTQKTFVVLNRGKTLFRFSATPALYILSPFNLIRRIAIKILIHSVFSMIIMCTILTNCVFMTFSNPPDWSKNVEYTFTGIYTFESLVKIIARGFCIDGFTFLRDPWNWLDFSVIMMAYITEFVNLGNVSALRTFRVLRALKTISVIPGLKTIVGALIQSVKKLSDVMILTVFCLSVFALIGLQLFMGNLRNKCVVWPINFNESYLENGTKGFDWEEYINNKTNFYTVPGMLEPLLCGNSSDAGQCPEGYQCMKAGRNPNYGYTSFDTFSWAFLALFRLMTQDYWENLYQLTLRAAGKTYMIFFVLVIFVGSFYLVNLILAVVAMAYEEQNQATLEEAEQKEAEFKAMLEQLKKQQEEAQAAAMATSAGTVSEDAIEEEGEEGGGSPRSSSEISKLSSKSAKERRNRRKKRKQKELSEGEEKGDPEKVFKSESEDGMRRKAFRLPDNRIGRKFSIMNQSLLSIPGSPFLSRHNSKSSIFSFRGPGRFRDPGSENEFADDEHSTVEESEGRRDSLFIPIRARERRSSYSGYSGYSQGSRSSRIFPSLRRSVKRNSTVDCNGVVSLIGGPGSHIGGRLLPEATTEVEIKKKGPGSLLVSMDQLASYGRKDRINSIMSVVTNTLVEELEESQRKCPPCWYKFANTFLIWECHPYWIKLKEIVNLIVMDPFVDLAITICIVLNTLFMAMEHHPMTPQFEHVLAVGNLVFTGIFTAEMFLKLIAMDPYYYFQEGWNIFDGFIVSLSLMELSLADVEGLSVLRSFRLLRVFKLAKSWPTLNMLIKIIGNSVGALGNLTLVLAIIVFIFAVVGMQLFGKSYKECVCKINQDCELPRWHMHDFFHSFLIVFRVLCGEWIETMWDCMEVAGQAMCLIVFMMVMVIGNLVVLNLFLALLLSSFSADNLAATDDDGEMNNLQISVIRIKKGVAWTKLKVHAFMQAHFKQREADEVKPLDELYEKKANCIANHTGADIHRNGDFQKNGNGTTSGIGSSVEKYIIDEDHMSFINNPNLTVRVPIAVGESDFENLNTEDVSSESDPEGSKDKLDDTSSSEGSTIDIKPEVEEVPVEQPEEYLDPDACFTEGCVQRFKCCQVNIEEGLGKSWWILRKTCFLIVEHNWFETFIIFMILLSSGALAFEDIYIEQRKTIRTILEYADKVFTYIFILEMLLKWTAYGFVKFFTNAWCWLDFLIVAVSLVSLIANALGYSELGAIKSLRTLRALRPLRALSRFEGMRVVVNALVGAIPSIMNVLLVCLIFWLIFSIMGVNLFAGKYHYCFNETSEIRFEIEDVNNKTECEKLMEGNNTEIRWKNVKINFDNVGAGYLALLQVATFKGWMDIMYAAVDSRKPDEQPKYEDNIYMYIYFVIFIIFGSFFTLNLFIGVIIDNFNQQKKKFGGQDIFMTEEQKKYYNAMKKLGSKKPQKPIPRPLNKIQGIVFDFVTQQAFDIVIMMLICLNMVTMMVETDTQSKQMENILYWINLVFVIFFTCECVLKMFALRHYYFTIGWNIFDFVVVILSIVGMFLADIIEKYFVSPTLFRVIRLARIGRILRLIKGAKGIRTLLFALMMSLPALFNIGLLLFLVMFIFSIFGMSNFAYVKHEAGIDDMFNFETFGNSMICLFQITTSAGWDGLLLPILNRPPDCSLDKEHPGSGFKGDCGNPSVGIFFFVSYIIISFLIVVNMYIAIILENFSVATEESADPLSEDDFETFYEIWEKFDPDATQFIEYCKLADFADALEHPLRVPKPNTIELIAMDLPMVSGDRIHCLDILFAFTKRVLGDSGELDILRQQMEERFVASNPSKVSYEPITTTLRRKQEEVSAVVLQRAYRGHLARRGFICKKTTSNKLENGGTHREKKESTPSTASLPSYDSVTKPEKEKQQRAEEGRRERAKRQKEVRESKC
T1 sequence (Q9UQD0 whole entry): as above

## CCOC(F)(F)c1nnc2ccc(-c3cnc(OCC(F)(F)F)c(F)c3)cn12 [Compound 1]
[1]; HEK293, fitted maximum of Hill equation, read-out: Peak INa UDB-10 Hz Max effect
  Emax: 100%
[1]; TB IC50 / UDB IC50
  UDB preference to TB: 44 ×
[1]; UDB IC50 / persistent INa IC50
  Ratio to Pers. INa (Peak INa UDB-10 Hz): 1.6
[1]; in words, FIGS. 7A-7C
  activity dependent block of peak INa: enhanced activity dependent inhibition of peak INa
[1]; use-dependent block 10 Hz
  Peak INa UDB-10 Hz Hill slope: (0.7)
[1]; use-dependent block, Vm -120 mV, 10 Hz
  IC50: 200 nM
[2]; fold more potent
  Persistent INa potency relative to the other tested INa blocking agents: at least 550 ×
[2]; hNaV1.6 in HEK cells, ATX-II
  Persistent INa Hill slope: (1.4)
[2]; hNaV1.6 in HEK cells, ATX-II, Vm -120 mV, 200 ms
  IC50: 128 nM
[2]; in words, FIGS. 1A-1D
  preference for persistent INa relative to peak INa: demonstrated preference for persistent INa relative to peak INa for all assay conditions
[3]; 10 mg/kg orally
  sedation or ataxia before MES test: some mice showed sedation or ataxia; also recorded: six of thirty mice showed mild to moderate sedation
[3]; 0.3 to 3 mg/kg orally
  sedation or ataxia before MES test: No sedation or ataxia was observed; also recorded: No sedation was observed
[3]; Mus musculus, administered dose
  ED50: 0.42 mg/kg
[4]; development of inhibition of hNaV1.6 INa
  apparent KON: 4.2e+06 M⁻¹ s⁻¹ and 4.168e+06 M⁻¹ s⁻¹
[4]; development of inhibition of hNaV1.6 INa, read-out: apparent KON
  kon: 4.2e+06 M⁻¹ s⁻¹
[4]; fold faster
  KON versus carbamazepine: > 1,500 ×
[4]; fold slower unbinding
  KOFF slower than carbamazepine: 33 ×
[4]; [7]
  apparent KOFF: 1.7 s⁻¹ and 1.72 s⁻¹
  koff: 1.7 s⁻¹
[5]
  TD50: 10.4 mg/kg
[6]; 3 mg/kg and 5.6 mg/kg p.o.
  sedation or ataxia: No sedation or ataxia was observed
[6]; 10 mg/kg p.o.
  mice with sedation and/or ataxia: five
[6]; 20 mg/kg p.o.
  mice with sedation and/or ataxia: eight
[6]; brain concentration
  sLMA brain TC50: 1914 ng/g
[6]; plasma concentration
  sLMA plasma TC50: 1.256 µg/mL
